Source: ChEMBL document CHEMBL3885861, “Open TG-GATES”

Species: Rattus norvegicus
Assay: Open TG-GATES - Regimen: Daily Repeat
Assay type: toxicity, organism-based, Sprague-Dawley
Design: regimen Daily Repeat, gender Male, age 6 weeks
Conditions: in vivo, po, 1 mg/kg, […], route gavage, dose level Low; for KIDNEY_L / KIDNEY_R / KIDNEY_TOTAL: tissue Kidney; for LIVER: tissue Liver; for A/G / ALP / ALT / AST / BUN / CRE / Ca / Cl / DBIL / GLC / IP / K / LDH / Na / PL / RALB / TBIL / TC / TG / TP / gamma-GTP: tissue Plasma

O=NN(CCCl)C(=O)NC1CCCCC1 [LOMUSTINE]
Lym (tissue Blood, time 28 day): 82% | MCH (tissue Blood, time 28 day): 19 pg | MCHC (tissue Blood, time 28 day): 33.3% | MCV (tissue Blood, time 28 day): 57.1 fL | Mono (tissue Blood, time 28 day): 5.4% | Neu (tissue Blood, time 28 day): 11.8% | PT (tissue Blood, time 28 day): 11.6 s | Plat (tissue Blood, time 28 day): 109.6 x10_4/uL | RBC (tissue Blood, time 28 day): 797.4 x10_4/ul | Ret (tissue Blood, time 28 day): 2.6% | WBC (tissue Blood, time 28 day): 167.6 x10_2/uL | KIDNEY_L (time 7 day): 1.2 g | KIDNEY_R (time 7 day): 1.2 g | KIDNEY_TOTAL (time 7 day): 2.3 g | KIDNEY_L (time 14 day): 1.3 g | KIDNEY_R (time 14 day): 1.2 g | KIDNEY_TOTAL (time 14 day): 2.5 g | KIDNEY_L (time 28 day): 1.3 g | KIDNEY_R (time 28 day): 1.4 g | KIDNEY_TOTAL (time 28 day): 2.7 g | LIVER (time 7 day): 12.4 g | LIVER (time 14 day): 14.7 g | LIVER (time 28 day): 16.7 g | A/G (time 7 day): 2 | ALP (time 7 day): 865.2 IU/L | ALT (time 7 day): 35.2 IU/L | AST (time 7 day): 61.6 IU/L | BUN (time 7 day): 17.6 mg/dL | CRE (time 7 day): 0.5 mg/dL | Ca (time 7 day): 10.9 mg/dL | Cl (time 7 day): 106 meq/L | DBIL (time 7 day): 0.018 mg/dL | GLC (time 7 day): 195.2 mg/dL | IP (time 7 day): 7.5 mg/dL | K (time 7 day): 4.8 meq/L | LDH (time 7 day): 87.8 IU/L | Na (time 7 day): 139.6 meq/L | PL (time 7 day): 148.2 mg/dL | RALB (time 7 day): 3.9 g/dL | TBIL (time 7 day): 0.3 mg/dL | TC (time 7 day): 79.2 mg/dL | TG (time 7 day): 71.4 mg/dL | TP (time 7 day): 5.9 g/dL | gamma-GTP (time 7 day): 1.2 IU/L | A/G (time 14 day): 2 | ALP (time 14 day): 821 IU/L | ALT (time 14 day): 26.2 IU/L | AST (time 14 day): 56.8 IU/L | BUN (time 14 day): 19.2 mg/dL | CRE (time 14 day): 0.5 mg/dL | Ca (time 14 day): 11.3 mg/dL | Cl (time 14 day): 106.6 meq/L | DBIL (time 14 day): 0.01 mg/dL | GLC (time 14 day): 184.4 mg/dL | IP (time 14 day): 7.4 mg/dL | K (time 14 day): 4.8 meq/L | LDH (time 14 day): 84.6 IU/L | Na (time 14 day): 139.8 meq/L | PL (time 14 day): 175.2 mg/dL | RALB (time 14 day): 4 g/dL | TBIL (time 14 day): 0.3 mg/dL | TC (time 14 day): 83.2 mg/dL | TG (time 14 day): 141.4 mg/dL | TP (time 14 day): 6.1 g/dL | gamma-GTP (time 14 day): 1.8 IU/L | A/G (time 28 day): 1.8 | ALP (time 28 day): 696.4 IU/L | ALT (time 28 day): 52.8 IU/L | AST (time 28 day): 103.6 IU/L | BUN (time 28 day): 20.4 mg/dL | CRE (time 28 day): 0.4 mg/dL | Ca (time 28 day): 10.9 mg/dL | Cl (time 28 day): 105.6 meq/L | DBIL (time 28 day): 0.006 mg/dL | GLC (time 28 day): 195.2 mg/dL | IP (time 28 day): 6.5 mg/dL | K (time 28 day): 4.5 meq/L | LDH (time 28 day): 172.8 IU/L | Na (time 28 day): 139.6 meq/L | PL (time 28 day): 165.2 mg/dL | RALB (time 28 day): 4.2 g/dL | TBIL (time 28 day): 0.3 mg/dL | TC (time 28 day): 78.6 mg/dL | TG (time 28 day): 139.8 mg/dL | TP (time 28 day): 6.5 g/dL | gamma-GTP (time 28 day): 1.6 IU/L
